# Results from patent publication US6897219B2, “Heteroaryl diazacycloalkanes, their preparation and use” (priority 1997, dated 2005).
# Structures can show the parent of a compound that is named as a salt.
row,Structure (SMILES),melting point
1,CN1CCCN(c2cccc([N+](=O)[O-])c2)CC1,163.1 to 164.4 °C
2,CN1CCN(c2cnc3ccccc3c2)CC1,116.5 to 117 °C
3,c1ccc2ncc(N3CCNCC3)cc2c1,87.7 to 88.5 °C
4,Clc1ccc(N2CCCNCC2)cn1,165 to 167 °C
5,C=COc1cncc(N2CCN(C)CC2)c1 (as salt: fumaric acid salt),136.4 to 138.2 °C
6,CCCCCCOc1cncc(N2CCCNCC2)c1 (as salt: fumaric acid salt),149.5 to 151.8 °C
7,O=S(=O)(Oc1cncc(N2CCCNCC2)c1)C(F)(F)F (as salt: fumaric acid salt),154 to 156 °C
8,CC1CCN(c2ccc(Cl)nn2)CCCN1 (centres unmarked) (as salt: fumaric acid salt),166 to 168 °C
9,c1ncc(N2CCCNCC2)cc1OCC1CCCCC1 (as salt: fumaric acid salt),163.3 to 164.5 °C
10,C#Cc1cncc(N2CCCNCC2)c1 (as salt: fumaric acid salt),172.5 to 174 °C
11,CCOCCOc1cncc(N2CCCNCC2)c1 (as salt: fumaric acid salt),139.3 to 140.4 °C
12,O=[N+]([O-])c1cccc(N2CCCNCC2)c1 (as salt: fumaric acid salt),163.1 to 164.4 °C
13,CCCCCOc1cncc(N2CCCNCC2)c1 (as salt: fumaric acid salt),155.5 to 156.7 °C
14,Nc1cccc(N2CCCNCC2)c1 (as salt: fumaric acid salt),165.4 to 167.7 °C
15,CCCCCCCOc1cncc(N2CCCNCC2)c1 (as salt: fumaric acid salt),132.8 to 136.6 °C
16,COc1cccc(N2CCCNCC2)c1 (as salt: fumaric acid salt),164.1 to 165.7 °C
17,Oc1cccc(N2CCCNCC2)c1 (as salt: fumaric acid salt),165 °C (dec.)
18,c1ccn(-c2cncc(N3CCCNCC3)c2)c1 (as salt: fumaric acid salt),174 to 175 °C
19,CN1CCCN(c2ccc(Cl)nn2)CC1 (as salt: fumaric acid salt),171 to 172 °C

row,Structure (SMILES),melting point
1,CN1CCCN(c2ccc(-c3ccccc3)nn2)CC1 (as salt: fumaric acid salt),185 to 186 °C
2,CN1CCCN(c2cccnn2)CC1 (as salt: fumaric acid salt),137.8 to 139.3 °C
3,Cc1ccc(N2CCCN(C)CC2)nn1 (as salt: fumaric acid salt),152 to 153 °C
4,c1ccc(CN2CCCN(c3cccnc3)CC2)cc1 (as salt: fumaric acid salt),148.4 to 149 °C
5,CCN1CCCN(c2cccnc2)CC1 (as salt: fumaric acid salt),145.3 to 147.5 °C
6,c1cncc(-c2cncc(N3CCCNCC3)c2)c1 (as salt: fumaric acid salt),160 to 162 °C
7,c1ccc2c(c1)ccn2-c1cncc(N2CCCNCC2)c1 (as salt: fumaric acid salt),193 to 195 °C
8,c1ccc(-c2ccc(N3CCCNCC3)nn2)cc1 (as salt: fumaric acid salt),187 to 189 °C
9,COc1ccc(N2CCCNCC2)cn1 (as salt: fumaric acid salt),127 to 128 °C
10,COc1cc(N2CCCNCC2)cnc1OC (as salt: fumaric acid salt),150 to 152 °C
11,C=COc1cncc(N2CCNCC2)c1 (as salt: fumaric acid salt),136.4 to 138.2 °C
12,COc1cnc(Cl)c(N2CCCNCC2)c1 (as salt: fumaric acid salt),117 to 118 °C
13,CCCCOc1cncc(N2CCCNCC2)c1 (as salt: fumaric acid salt),150 to 151 °C
14,C=COc1cncc(N2CCCNCC2)c1 (as salt: fumaric acid salt),143 to 144 °C
15,Cc1cnc(C)c(N2CCCNCC2)n1 (as salt: fumaric acid salt),149 to 151 °C
16,c1ccc(-c2cncc(N3CCNCC3)c2)cc1 (as salt: fumaric acid salt),167.5 to 168.5 °C
17,CCOc1cncc(N2CCCNCCC2)c1 (as salt: fumaric acid salt),162.5 to 164.5 °C
18,c1ncc(N2CCCNCC2)cc1OC1CCCC1 (as salt: fumaric acid salt),148 to 150 °C
19,CCCOc1cncc(N2CCCNCCC2)c1 (as salt: fumaric acid salt),150 to 152 °C

row,Structure (SMILES),melting point
1,CCOc1cc(N2CCCNCC2)cnc1Br (as salt: fumaric acid salt),181.7 to 183.2 °C
2,c1cc(N2CCCC2)ncc1N1CCCNCC1 (as salt: fumaric acid salt),148.6 to 150.5 °C
3,Clc1cncc(N2CCCNCC2)c1 (as salt: fumaric acid salt),144.4 to 146.6 °C
4,Clc1nc2ccccc2nc1N1CCCNCC1 (as salt: fumaric acid salt),136.2 to 139.9 °C
5,CCCCOc1cncc(N2CCN(C)CC2)c1 (as salt: fumaric acid salt),136.9 to 139.2 °C
6,C=COc1cncc(N2CCCNCCC2)c1 (as salt: fumaric acid salt),142 to 144 °C
7,CC(C)CCOc1cncc(N2CCCNCC2)c1 (as salt: fumaric acid salt),139.9 to 142 °C
8,Brc1cncc(N2CCCNCC2)c1 (as salt: fumaric acid salt),180.7 to 185.4 °C
9,c1ccc2c(N3CCCNCC3)cncc2c1 (as salt: fumaric acid salt),160 to 162 °C
10,"CN1CCN(c2cccnc2)CC1 (as salt: fumaric acid salt) [Compound 1A, 4-Methyl-1-(3-pyridyl)-piperazine]",144.5 to 145.9 °C
11,"c1cncc(N2CCNCC2)c1 (as salt: fumaric acid salt) [Compound 1B, 1-(3-Pyridyl)-piperazine]",161.7 to 164.8 °C
12,"CCOc1cncc(N2CCNCC2)c1 (as salt: fumaric acid salt) [Compound 1D, 1-(5-Ethoxy-3-pyridyl)piperazine]",160 to 161.2 °C
13,"c1cncc(N2CCCNCC2)c1 (as salt: fumaric acid salt) [Compound 1F, 1-(3-Pyridyl)-homopiperazine]",172.1 to 172.9 °C
14,"COc1cncc(N2CCCNCC2)c1 (as salt: fumaric acid salt) [Compound 1H, 1-(5-Methoxy-3-pyridyl)-homopiperazine]",161 to 162 °C
15,"Clc1ccc(N2CCCNCC2)nn1 (as salt: fumaric acid salt) [Compound 1K, 1-(6-Chloro-3-pyridazinyl)-homopiperazine]",165 to 166 °C
16,"COc1cncc(N2CCN(C)C2)c1 (as salt: fumaric acid salt) [Compound 1M, 1-(5-Methoxy-3-pyridyl)-3-methyl-imidazolidine]",139 to 142 °C
17,"CCCCOc1cncc(N2CCNCC2)c1 (as salt: fumaric acid salt) [Compound 2D, 1-(5-Butoxy-3-pyridyl)piperazine]",149.4 to 151.7 °C
18,"CN1CCCN(c2cnc3ccccc3c2)CC1 (as salt: fumaric acid salt) [Compound 2E, 4-Methyl-1-(3-quinolinyl)-homopiperazine]",170 to 171 °C
